Patent US6660501B2, “Production of proteins by cell culture” (Lonza Group, AG, priority 1986, dated 2003)

System: NT1/19 cells
Experiment: Effect of varying alkanoates on antibody production from hybridoma cells
Assay type: cell-based
Settings: for AVERAGE DATA FROM EXP. #1 & #2: average of relative productivity, control 100.00; for PRODUCTIVITY EXP. #1: control 3.30; for PRODUCTIVITY EXP #2: control 2.39
Description: The IgM secreting mouse hybridoma cell line NB1/19 was grown in suspension culture in Dulbeccos Modified Eagles Minimum (DMEM) serum-free medium containing albumin, insulin, transferrin, gentamycin and other additives as required to cultivate cells in suspension culture. The NB1/19 cell line produces a mouse monoclonal antibody having specificity for an antigenic determinant of human B-type blood cells. The preparation of this call line is described in detail in the specification of British Patent GB 2097425B. It will be appreciated, however, that other hybridoma cell lines may be used in place of this particular cell line as appropriate in this and other examples.
The cells were grown to a viable cell density of 1.0-1.5×10^6 cells/ml. Viable cell density was determined by counting the number of cells which exclude trypan blue, a staining agent. A sample of the suspension culture was diluted in a serum-free medium to a density of about 1.3×10^5 cells/ml. Aliquots of 50 ml in volume were dispensed into shake flasks and sodium butyrate added at concentrations of 0.1 mM, 0.3 mM, 0.5 mM and 1.0 mM.
The shake flasks were gassed with 5% CO2-95% air, and sealed and incubated with shaking at 37° C. for up to 207 hours. (Table 1). Samples ([…]) were removed from the culture by pipette. 100 μl was used to determine viable cell count and the reminder centrifuged at 300×g for five minutes. Supernatants were stored at −20° C. prior to antibody determination by enzyme linked immunosorbent assay (ELISA).
NT1/19 cells were cultured as in Example 1. Varying straight chain sodium alkanoate salts (propionate, butyrate, bentanoate or hexanoate) were added to the inoculum at the concentrations indicated in Table 5.

| Structure (SMILES) | RELATIVE PRODUCTIVITY EXP. #1 (0.50 mM alkanoate) | AVERAGE DATA FROM EXP. #1 & #2 (0.50 mM alkanoate) | PRODUCTIVITY EXP. #1 (0.50 mM alkanoate) | RELATIVE PRODUCTIVITY EXP. #1 (1.00 mM alkanoate) | RELATIVE PRODUCTIVITY EXP. #2 (1.00 mM alkanoate) | AVERAGE DATA FROM EXP. #1 & #2 (1.00 mM alkanoate) | PRODUCTIVITY EXP #2 (1.00 mM alkanoate) | PRODUCTIVITY EXP. #1 (1.00 mM alkanoate) |
| --- | --- | --- | --- | --- | --- | --- | --- | --- |
| CCCCC(=O)[O-].[Na+] [PENANOATE, bentanoate] | 163.6 % of control | 163.64 | 5.40 ug antibody per 10^5 cells | 206.1 % of control | 230.1 % of control | 218.09 | 5.50 ug antibody per 10^5 cells | 6.80 ug antibody per 10^5 cells |
| CCC(=O)O [PROPIONATE, propionate] |  | 172.73 | 5.70 ug antibody per 10^5 cells |  |  | 210.07 | 4.95 ug antibody per 10^5 cells | 7.03 ug antibody per 10^5 cells |
